US9585957B2, “Adenosine receptor agonists and antagonists to modulate T cell responses” (THE JOHNS HOPKINS UNIVERSITY, priority 2007, dated 2017)

Assays:
[1] = system: 6.5+ T cells in C3HA mice; experiment: In vivo suppression: second transfer of lethal numbers of clonotypic 6.5+ T cells into surviving C3HA mice; conditions: mice that survived as a result of CGS treatment; no drug at second transfer (FIG. 5d)
Protocol: It has been shown that mice that survive the initial transfer of donor T cells can survive subsequent transfer of higher numbers of clonotypic T cells. To determine if adenosine mediates the formation of T regulatory cells, in vivo, we gave the surviving mice from FIG. 4a a transfer of […] clonotypic T cells 4-6 weeks after the first transfer. No CGS is administered upon the second transfer.
Tests were conducted to determine if the CGS-induced clonotypic regulatory cells could protect the mice upon subsequent rechallenge with a second injection of clonotypic cells. An in vivo suppression assay was performed by adoptively transferring uniformly lethal numbers of clonotypic 6.5^+ T cells (2.5×10^6) into mice that had survived the initial adoptive transfer (and developed regulatory T cells) (FIG. 5d).

[2] = system: A.E7 T cells; experiment: Anergy induction in A.E7 T cells: incubation with APCs, PCC and CGS, then rechallenge without CGS; format: cell-based
Protocol: A.E7 is a clonotypic CD4^+, Th1 T cell clone specific for pigeon cytochrome c (PCC) and is maintained as previously described (Powell et al. J Immunol. 1999; 162:2775-2784).
Studies were conducted to determine the effects of A2a receptor stimulation on T cell function. A.E7 is a clonotypic CD4′, Th1 T cell clone specific for pigeon cytochrome c (PCC) and is maintained as previously described (Powell, J. D., Lerner, C. G. & Schwartz, R. H. Inhibition of cell cycle progression by rapamycin induces T cell clonal anergy even in the presence of costimulation. J Immunol 162, 2775-84 (1999)). A.E7s were rendered anergic with anti-CD3 or by incubation with APC, PCC and […] CGS-21680. For antibody induced anergy, 6-well plates were previously coated with anti-CD3 three hours prior to stimulation and washed with PBS. For mock stimulations, the well was not coated with anti-CD3. A.E7s were incubated in the coated well overnight at 37° C., then harvested and washed extensively and rested (24 hours for CAMP measurement, 4-6 days for proliferation and cytokine production). […] A.E7s were then isolated via a ficoll gradient, washed extensively, and immediately rechallenged for proliferation and cytokine production. To assess proliferation to PCC, T cells were extensively washed and 5×10^6 cells were added to 50×10^4 irradiated BIO.A splenocytes and increasing doses of PCC in triplicate in a 96-well flat-bottomed plate. After 48 hours, cells were pulsed with [^3H] thymidine and harvested 16 hrs later. Tritium incorporation was determined by a Packard Matrix 96 direct beta counter (Packard bioscience). For cytokine production, a 96-well round-bottom plate was preincubated with […] anti-CD3 for 3 hours. […] All conditions were done in triplicate and were cultured overnight. Supernatant was collected and assessed for cytokine levels (eBioscience for IL-2, IFN-y, TNF-a; R&D Systems for GM-CSF) as per manufacturers' instructions. For each sample, multiple dilutions of the supernatant were assayed and concentration was determined based upon the dilution that best fit the most linear aspect of the standard curve. For CD25 measurements, the cells used for cytokine production were stained with anti-CD25, harvested and measured by flow cytometry.
Next, the T cells were isolated and rechallenged with APCs and peptide in the absence of CGS (secondary stimulation).

[3] = system: ERK phosphorylation, jun B, AP-1; experiment: Western blot for phospho-ERK and jun B, and EMSA for AP-1, after T cell stimulation with or without CGS; format: cell-based, mice
Protocol: For phospho-ERK and total ERK Western blots, splenocytes from 6.5^+ mice were stimulated overnight with 10 ug/mL HA class II peptide then harvested and enriched for CD4^+ T cells. CD4^+ purified T cells were then stimulated in 500 uL with soluble anti-CD3 (10 ug/mL) and soluble anti-CD28 (1:20 dilution).
Nuclear extracts from CD4^+ purified 6.5^+ T cells that were prepared. The AP-1 probe was: 5′-CGCTTGATGACTCAGCCGGAA-3′. The NFkB probe was: 5′-AGTTGAGGGGACTTTCCCAGGC-3′.

For `CCNC(=O)[C@H]1O[C@@H](n2cnc3c(N)nc(NCCc4ccc(CCC(=O)O)cc4)nc32)[C@H](O)[C@@H]1O` [CGS, 2-p-(2-carboxyethyl)phenethyl-amino-5-N-ethyl-carboxamidoadenosine], the “survival of the second adoptive transfer” value [1] was 100%, the “response upon rechallenge after mock induction” value ([2]; 1 μM CGS during mock induction, no peptide present, rechallenge without CGS (FIG. 2a)) was “no effect” and the proliferation upon rechallenge ([2]; 1 μM CGS with peptide during initial stimulation, rechallenge without CGS (FIG. 2b)) was “reduced proliferation”. For the same compound, the “IFN-γ production upon rechallenge” value ([2]; 1 μM CGS with peptide during initial stimulation, rechallenge without CGS (FIG. 2c)) was “reduced”, the “induction of anergy in the presence of exogenous IL-2” value ([2]; peptide, exogenous IL-2 and 1 μM CGS during induction (FIGS. 2d and e)) was “the presence of IL-2 prevented the ability of CGS to induce anergy” and the ERK phosphorylation ([3]; Signal 1+2, 1 μM CGS (FIG. 3d)) was “inhibited ERK phosphorylation”. For the same compound, the “jun B expression in the nucleus” value ([3]; T cell stimulation, 1 μM CGS (FIG. 3e)) was “reduced jun B expression” and the “AP-1 binding (EMSA)” value ([3]; T cell stimulation, 1 μM CGS (FIG. 3f)) was “lowered AP-1 binding”.
